Experimental findings from US20250282799A1, “SUBSTITUTED PYRIDO[4,3-d]PYRIMIDINES AS KRAS MODULATORS” (Alterome Therapeutics, Inc., priority 2023, published 2025) are described below.

This assay concerns KRAS G12V dependent lung adenocarcinoma cell line, NCI-H441. Put plainly: Cellular pERK (Thr202/Tyr204) FRET/HTRF assay. Type of assay: cell-based. Conditions: Homo sapiens, NCI-H441, cellular pERK (Thr202/Tyr204) HTRF, NCI-H441 cells. In a few lines:
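NCI-H441, overnight plating → cpd 1 hr, 37 °C/5% CO2; DMSO neg ctrl. Lyse (phosphatase inhibitors), add donor/acceptor Abs, RT incubation, HTRF read. IC50 by curve fit.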
A general note: Time-resolved FRET reads energy transfer from a long-lived donor to a nearby acceptor.

Some results are limits rather than exact numbers.

In general, IC50 refers to the midpoint of a concentration-inhibition curve. High values mean lower potency, low ones higher potency.

Take `C#Cc1c(F)ccc2cc(N)cc(-c3ncc4c(N5CCOC[C@H]6[C@H](F)[C@H]65)nc(OC[C@@]56CCCN5C[C@H](C)C6)nc4c3F)c12` (single isomer, unassigned) [Example 208]: the IC50 was below 0.05 µM.

Consider `C#Cc1c(F)ccc2cc(N)cc(-c3ncc4c(N5CCOC[C@H]6[C@H](F)[C@H]65)nc(OC[C@@]56CCCN5C[C@@H](C)C6)nc4c3F)c12` (single isomer, unassigned) [Example 209], for which the concentration for half-maximal inhibition (IC50) is below 0.05 µM. The value for `C#Cc1c(F)ccc2cc(N)cc(-c3ncc4c(N5CCOC[C@H]6[C@H](F)[C@H]65)nc(OC[C@@]56CCCN5C[C@]5(CC5(F)F)C6)nc4c3F)c12` (single isomer, unassigned) [Example 210] was below 0.05 µM; that for `C#Cc1c(F)ccc2cc(N)cc(-c3ncc4c(N5CCOC[C@H]6[C@H](F)[C@H]65)nc(OC[C@@]56CCCN5C[C@@]5(CC5(F)F)C6)nc4c3F)c12` (single isomer, unassigned) [Example 211] was below 0.05 µM. As for `[2H]C([2H])(F)Oc1c(F)ccc2cc(N)cc(-c3ncc4c(N5CCOC[C@H]6[C@H](F)[C@H]65)nc(OC[C@@]56CCCN5C[C@@H](C)C6)nc4c3F)c12` (single isomer, unassigned) [Example 214], the concentration for half-maximal inhibition (IC50) was below 0.05 µM.

In turn, `[2H]C([2H])(F)Oc1c(F)ccc2cc(N)cc(-c3ncc4c(N5CCOC[C@H]6[C@H](F)[C@H]65)nc(OC[C@@]56CCCN5C[C@H](C)C6)nc4c3F)c12` (single isomer, unassigned) [Example 215] gave an IC50 below 0.05 µM.

With `C#Cc1c(F)ccc2cc(N)cc(-c3ncc4c(N5CCOC[C@H]6[C@H](F)[C@H]65)nc(OC[C@]56C[C@@]7(CN5CCC65CC5)CC7(F)F)nc4c3F)c12` (single isomer, unassigned) [Example 218], the IC50 was below 0.05 µM. `C#Cc1c(F)ccc2cc(N)cc(-c3ncc4c(N5CCOC[C@H]6[C@H](F)[C@H]65)nc(OC[C@]56C[C@]7(CN5CCC65CC5)CC7(F)F)nc4c3F)c12` (single isomer, unassigned) [Example 219] displayed a concentration for half-maximal inhibition (IC50) below 0.05 µM.

In turn, `[2H]C([2H])(F)Oc1c(F)ccc2cc(N)cc(-c3ncc4c(N5CCOC[C@H]6[C@H](F)[C@H]65)nc(OC[C@@]56CCCN5C[C@@]5(CC5(F)F)C6)nc4c3F)c12` (single isomer, unassigned) [Example 229] gave a concentration for half-maximal inhibition (IC50) below 0.05 µM.

Take `[2H]C([2H])(F)Oc1c(F)ccc2cc(N)cc(-c3ncc4c(N5CCOC[C@H]6[C@H](F)[C@H]65)nc(OC[C@@]56CCCN5C[C@]5(CC5(F)F)C6)nc4c3F)c12` (single isomer, unassigned) [Example 230]: the IC50 is below 0.05 µM. For `C#Cc1c(F)ccc2cc(N)cc(-c3ncc4c(N5CCOC[C@H]6[C@H](F)[C@H]65)nc(OC[C@]56C[C@]7(C[C@H]7F)CN5CCC65CC5)nc4c3F)c12` (single isomer, unassigned) [Example 231] the value was below 0.05 µM; for `C#Cc1c(F)ccc2cc(N)cc(-c3ncc4c(N5CCOC[C@H]6[C@H](F)[C@H]65)nc(OC[C@]56C[C@]7(C[C@@H]7F)CN5CCC65CC5)nc4c3F)c12` (single isomer, unassigned) [Example 232], below 0.05 µM. Molecule `C#Cc1c(F)ccc2cc(N)cc(-c3ncc4c(N5CCOC[C@H]6[C@H](F)[C@H]65)nc(OC[C@]56C[C@@]7(C[C@H]7F)CN5CCC65CC5)nc4c3F)c12` (single isomer, unassigned) [Example 233] had a concentration for half-maximal inhibition (IC50) below 0.05 µM. The value for `C#Cc1c(F)ccc2cc(N)cc(-c3ncc4c(N5CCOC[C@H]6[C@H](F)[C@H]65)nc(OC[C@]56C[C@@]7(C[C@@H]7F)CN5CCC65CC5)nc4c3F)c12` (single isomer, unassigned) [Example 234] was below 0.05 µM.
